The source of these data is patent US20050288347A1, “Certain triazole-based compounds, compositions, and uses thereof” (priority 2004, published 2005).

“Also recorded” adds a separate entry of the source.

In one assay the target is protein kinase. As to the kind of experiment: HTS ATP-utilizing enzyme assay, off-chip mobility-shift format (Caliper HTS 250). The class given is biochemical, human. The following applies: kinase(s) for which the compound exhibits protein kinase inhibitory activity; test compound 10 μM; active = greater than three-sigma from the mean activity of inactive compounds. The method in brief: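 Single-point screen at 10 μM compound in HEPES pH 7.5 buffer with Triton X-100 and BSA, 2.5 h at 20–22 °C. Substrate-to-phosphopeptide ratio measured by off-chip microfluidic mobility shift; EDTA wells as 100% and DMSO wells as 0% control, hits called at three-sigma limits.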
On to `COCCn1c(SCC(=O)Nc2ccccc2C(=O)OC)nnc1-c1ccncc1`, for which the Kinase result is listed as “GSK3-β; also recorded: GSK3-α”.
On the same count and under the same terms, next, `CC(C)Cn1c(SCC(=O)OCc2ccccc2)nnc1-c1ccccc1O` [benzyl 2-(5-(2-hydroxyphenyl)-4-isobutyl-4H-1,2,4-triazol-3-ylthio)acetate]: “CDK2-cyclinE”; `Cn1c(SCC(N)=O)nnc1-c1ccc([N+](=O)[O-])cc1` [2-(4-methyl-5-(4-nitrophenyl)-4H-1,2,4-triazol-3-ylthio)acetamide]: “PDGFRR-α and FYN”; `COc1ccc(NCc2nnc(SCC(=O)Nc3ccc(C)cc3Br)n2C)cc1`: “FYN and PDGFRR-α and FLT-3”.
For the compound `CCn1c(SCC(=O)c2ccccc2)nnc1C1CCCCC1` [2-(5-cyclohexyl-4-ethyl-4H-1,2,4-triazol-3-ylthio)-1-phenylethanone], the Kinase result is given as “SRC”.
The same measure, in the same setting: in the case of `CCOc1ccc(NCc2nnc(SCC(=O)NCC3CCCO3)n2-c2ccccc2OC)cc1` (stereo not shown) it was “FYN”.
Turning to `O=C(CSc1nnc(-c2ccc(O)cc2)n1-c1ccccc1)c1ccccc1`, the Kinase result was “GSK3-α”.
For `CCn1c(SCC(=O)Nc2nc3c(s2)CCCC3)nnc1-c1cc2ccccc2cc1O`, the Kinase result is reported as “AURORA-A; also recorded: CDK2-cyclinE”.
For `CCOc1ccc(NCc2nnc(SCC(=O)O)n2-c2ccc(C)cc2)cc1`, the Kinase entry is given as “FYN”.
Still for that read-out and setting: in the case of `Cc1ccc(NC(=O)CSc2nnc(-c3ccc(O)cc3)n2C)cc1` it was “GSK3-β; also recorded: GSK3-α”; in that of `Cn1c(SCC(=O)Nc2nccs2)nnc1-c1ccc(S(=O)(=O)N2CCOCC2)cc1`, “GSK3-α; also recorded: GSK3-β”; in that of `Cc1cccc(NCc2nnc(S)n2-c2ccccc2)c1` [5-((m-toluidino)methyl)-4-phenyl-4H-1,2,4-triazole-3-thiol], “GSK3-α”.
For `COc1ccccc1-c1nnc(S)n1Cc1ccccc1` [4-benzyl-5-(2-methoxyphenyl)-4H-1,2,4-triazole-3-thiol], the Kinase entry was “AURORA-A”.
Same read-out and setting: next, `Cc1cccc(OCc2nnc(SC(C)C(=O)O)n2C)c1` (stereo not shown) [2-(4-methyl-5-(m-tolyloxymethyl)-4H-1,2,4-triazol-3-ylthio)propanoic acid]: “AURORA-A”; `COc1ccc(NCc2nnc(SCC(=O)Nc3cccc(O)c3)n2-c2ccccc2OC)cc1`: “CHEK2; also recorded: PDGFRR-α; also recorded: AURORA-A”.
Take `O=C(CSc1nnc(CNc2ccc(F)cc2)n1CC1CCCO1)N1CCCc2ccccc21` (stereo not shown): the Kinase entry is recorded as “AKT1”.
Still for that read-out and setting: next, `O=C(CSc1nnc(-c2ccc(O)cc2)n1Cc1ccco1)N1CCCc2ccccc21`: “GSK3-β; also recorded: GSK3-α”; `CCn1c(S)nnc1COc1ccccc1OC` [4-ethyl-5-((2-methoxyphenoxy)methyl)-4H-1,2,4-triazole-3-thiol]: “GSK3-α; also recorded: GSK3-β; also recorded: AURORA-A”.
On the same count and under the same terms, in the case of `O=C(CSc1nnc(CCN2CCOCC2)n1-c1ccc(F)cc1)c1ccccc1` it was “FYN”; in that of `COc1ccc(NCc2nnc(SCC(=O)Nc3cccc(-c4ccccc4)c3)n2C)cc1`, “PDGFRR-α and FYN and CHEK2”; in that of `CC(Sc1nnc(COc2ccccc2)n1-c1ccccc1)C(=O)O` (stereo not shown) [2-(5-(phenoxymethyl)-4-phenyl-4H-1,2,4-triazol-3-ylthio)propanoic acid], “FYN”.
Same read-out and setting: in the case of `Cc1cc(OCc2nnc(SC(C)C(=O)O)n2-c2ccccc2)ccc1Cl` (stereo not shown) it was “AURORA-A”; in that of `COc1ccc(-c2nnc(SCC(N)=O)n2-c2ccccc2)cc1` [2-(5-(4-methoxyphenyl)-4-phenyl-4H-1,2,4-triazol-3-ylthio)acetamide], “PDK1”; in that of `NC(=O)CSc1nnc(-c2ccc(O)cc2)n1Cc1ccco1`, “GSK3-β; also recorded: GSK3-α”.
As to `COc1ccc(NC(=O)CSc2nnc(-c3ccccc3O)n2-c2ccccc2)c(OC)c1`, the Kinase result is “CDK1”.
Still for that read-out and setting: in the case of `C=CCn1c(SCC(=O)Nc2cccc([N+](=O)[O-])c2)nnc1-c1ccncc1` it was “FYN”; in that of `CCOC(=O)CN(C(=O)CSc1nnc(-c2ccccc2O)n1CCc1ccccc1)c1cccc([N+](=O)[O-])c1`, “AURORA-A”; in that of `CCOC(=O)c1c(NC(=O)CSc2nnc(-c3ccccc3O)n2CCc2ccccc2)sc(C)c1C`, “CDK2-cyclinA”.
With `COc1ccc(-c2nnc(SCC(C)=O)n2-c2ccccc2)cc1` [1-(5-(4-methoxyphenyl)-4-phenyl-4H-1,2,4-triazol-3-ylthio)propan-2-one], the Kinase result was “INSR”.
Same read-out and setting: in the case of `COc1ccc(-n2c(SC(C)C(=O)O)nnc2-c2ccc(O)cc2)cc1` (stereo not shown) it was “GSK3-β; also recorded: MAPKAPK-2”; in that of `CCn1c(SCC(=O)Nc2nc(C)cs2)nnc1-c1ccc(S(=O)(=O)N2CCN(C)CC2)cc1`, “FYN”.
On the same count and under the same terms, next, `COc1ccc(-c2nnc(SCC(=O)N(C)C)n2-c2ccccc2)cc1`: “PDK1 and SYK and INSR”; `CCc1nnc(NC(=O)CSc2nnc(-c3ccc(S(=O)(=O)N4CCN(C)CC4)cc3)n2CC)s1`: “CHEK2”.
Still for that read-out and setting: next, `O=C(O)CSc1nnc(-c2cccnc2)n1-c1ccc(F)cc1` [2-(4-(4-fluorophenyl)-5-(pyridin-3-yl)-4H-1,2,4-triazol-3-ylthio)acetic acid]: “AURORA-A”; `COc1ccccc1OCc1nnc(S)n1Cc1ccco1`: “AURORA-A; also recorded: GSK3-β; also recorded: GSK3-α”.
`COc1ccc(-n2c(SCC#N)nnc2-c2cccnc2)cc1`: the Kinase result is “AURORA-A”.
The same measure, in the same setting: in the case of `Sc1nnc(-c2ccncc2)n1-c1ccccc1` [4-phenyl-5-(pyridin-4-yl)-4H-1,2,4-triazole-3-thiol] it was “LCK”; in that of `COc1ccc(NCc2nnc(SCC(=O)N3c4ccccc4Sc4ccccc43)n2-c2ccccc2)cc1`, “PDGFRR-α”.

Staying with this assay, now noted: test compound 10 μM; active = activity greater than three-sigma from the mean of the predominately inactive population for that enzyme.
As to `c1ccc(OCc2nnc(SCC3CC3)[nH]2)cc1` [3-(cyclopropylmethylthio)-5-(phenoxymethyl)-4H-1,2,4-triazole], the “protein kinase against which the compound exhibits inhibitory activity (Table 3)” value is “GSK3-α; also recorded: GSK3-β; also recorded: AURORA-A”.
Still for that read-out and setting: next, `COc1ccccc1-n1c(SCCC(=O)O)nnc1-c1cccnc1`: “AURORA-A”; `COc1ccc(-n2c(CNc3cc(C(F)(F)F)ccc3Cl)nnc2SCc2ccccc2Cl)cc1`: “CDK1”.
On the same count and under the same terms, next, `c1csc(-c2nnc(SCc3ccncc3)[nH]2)c1` [4-((5-(thiophen-2-yl)-4H-1,2,4-triazol-3-ylthio)methyl)pyridine]: “DYRK2; also recorded: AURORA-A; also recorded: FLT-3”; `COc1cc(CSc2nnc[nH]2)c(OC)cc1CSc1nnc[nH]1`: “CSK and LCK”; `COCCSc1nnc(-c2ccc(OC)cc2)n1-c1ccccc1` [3-(2-methoxyethylthio)-5-(4-methoxyphenyl)-4-phenyl-4H-1,2,4-triazole]: “SYK and INSR and PRAK”.
The same measure, in the same setting: next, `O=C(O)c1ccc(CSc2nnc(-c3cccs3)[nH]2)cc1` [4-((5-(thiophen-2-yl)-4H-1,2,4-triazol-3-ylthio)methyl)benzoic acid]: “DYRK2; also recorded: AURORA-A; also recorded: FLT-3”.
Consider `COc1ccc(-c2nnc(SCc3cccnc3)[nH]2)cc1` [3-((5-(4-methoxyphenyl)-4H-1,2,4-triazol-3-ylthio)methyl)pyridine], for which the “protein kinase against which the compound exhibits inhibitory activity (Table 3)” value is reported as “AURORA-A; also recorded: FLT-3; also recorded: DYRK2”.
Regarding `Clc1ccc(-c2nnc(SCCN3CCOCC3)[nH]2)cc1Cl` [4-(2-(5-(3,4-dichlorophenyl)-4H-1,2,4-triazol-3-ylthio)ethyl)morpholine], the “protein kinase against which the compound exhibits inhibitory activity (Table 3)” value is given as “AURORA-A; also recorded: GSK3-α; also recorded: GSK3-β”.
Still for that read-out and setting: in the case of `CCSc1nnc(COc2ccc(CC)cc2)n1C` [3-((4-ethylphenoxy)methyl)-5-(ethylthio)-4-methyl-4H-1,2,4-triazole] it was “AURORA-A”; in that of `CCOCCSc1nnc(-c2cccnc2)[nH]1` [3-(5-(2-ethoxyethylthio)-4H-1,2,4-triazol-3-yl)pyridine], “AURORA-A”; in that of `O=C(O)CCSc1nnc(-c2cccnc2)n1-c1ccccc1` [3-(4-phenyl-5-(pyridin-3-yl)-4H-1,2,4-triazol-3-ylthio)propanoic acid], “AURORA-A”.
Take `Cc1cc(OCc2nnc(SCCC(=O)O)n2C)ccc1Cl`: the “protein kinase against which the compound exhibits inhibitory activity (Table 3)” value is “AURORA-A”.
`c1ccc(CSc2nnc(CCC3CCCC3)n2Cc2cccnc2)cc1`: the “protein kinase against which the compound exhibits inhibitory activity (Table 3)” value is reported as “GSK3-α”.
On the same count and under the same terms, next, `COc1ccccc1-n1c(SCc2ccc(F)c(F)c2)nnc1-c1cccc(Cl)c1`: “ROCK2”; `c1csc(-c2nnc(SCCN3CCCC3)[nH]2)c1` [3-(2-(pyrrolidin-1-yl)ethylthio)-5-(thiophen-2-yl)-4H-1,2,4-triazole]: “GSK3-α; also recorded: GSK3-β; also recorded: DYRK2”; `CC(C)Sc1nnc(-c2ccc(NS(C)(=O)=O)cc2)n1C`: “CDK2-cyclinA”.
Same read-out and setting: next, `CCOC(=O)CCCSc1nnc(-c2ccc3[nH]c(C)c(C)c3c2)n1CC`: “FLT-3”.
The same measure, in the same setting: next, `Cn1c(CNc2ccc(F)cc2)nnc1SCc1c(Cl)cccc1Cl`: “GSK3-β; also recorded: GSK3-α”; `Cn1c(SCc2ccccc2)nnc1-c1ccc(O)cc1` [4-(5-(benzylthio)-4-methyl-4H-1,2,4-triazol-3-yl)phenol]: “GSK3-β and GSK3-α and MSK1”.
